Measurements from patent US11904037B2, “Enzymatic molecule mimicking anti-oxidant activity” (BIONUCLEI, priority 2018, dated 2024).

Assay: ABTS degradation, comparison with tocopherol after dark or UV exposure
Details: colloids 0.5 g/L, tocopherol 1.5 g/L
Protocol: The protocol for preparing the solutions as in point 4.1/ was repeated with a concentration of ZnO/3-hydroxybenzaldehyde colloids of 0.5 g/L and a concentration of tocopherol of 1.5 g/L.
The solutions obtained were separated: a fraction of the solution being placed in the dark, and the remaining fraction being placed under UV irradiation. After 30 minutes of exposure (to the dark or to UV), 30 μL of a concentrated solution of ABTS (7 mM) was added, and the absorption was then measured.

ABTS degradation capacity (after 30 minutes of exposure to UV): 22%
ABTS degradation capacity (after 30 minutes of exposure to the dark): 22%
Substance: tocopherol
